Measured values reported in patent publication US8097728B2, “Iminosugar compounds with antiflavirus activity” (Philadelphia Health & Education Corporation, priority 2007, dated 2012).
Entries after “also recorded” stand apart in the source; their conditions may differ. Where two headings read alike, the source gives them in different places.

Key:
[1] = MTT compound toxicity assay on MDBK cells; type: cell-based, Bovine; details: bovine
Protocol: (§1) Compound toxicity assay. Compound cytotoxicity was assessed by using an MTT based toxicity assay kit (Sigma, St. Louis, Mo.) as described elsewhere (Gu et al., 2006). Briefly, cells cultured under conditions identical to those used in the viral assay were incubated with various concentrations of the compound for 72 hours. MTT was added to the media to a final concentration of 0.5 mg/ml and was incubated for 3 hours at 37 C. After the culture media was removed, formazan crystals was dissolved by adding 150 ul of solubilization solution (10% Triton X-100, 0.1 N HCl in anhydrous isopropanol) for 15-30 minutes. The absorbance of the dissolved formazan was measured spectrophotometrically at 570 nm with absorbance at 690 nm as background.
(§2) The anti-viral activity of this family of compounds against BVDV was then determined by a single cycle viral yield reduction assay in Madin Darby Bovine Kidney (MDBK) cells where the compounds are incubated with cells for 20 hours during the period of infection. Yields of virus were then determined by plaque assay on new MDBK cell monolayers. Compound toxicity was measured by MTT assay and the CC50 determined as the concentration of compound producing 50% reduction in absorption readings. […] This is consistent with previous findings in which oxygenation and methoxylation of side chains emanating from the ring nitrogen were less toxic in tissue culture and in animals than straight chain alkylated DNJs (Mehta et al., 2002b).

MDBK cells = assay: MTT compound toxicity assay on MDBK cells; type: cell-based, Bovine; details: 72 hours; for toxicity in MDBK cells (in words): MTT, FIG. 4B; for CC50: BVDV (MDBK), concentration reducing MTT values (570 nm) by 50% relative to DMSO
Protocol: as §1, §2

WNV = WNV yield reduction assay in BHK cells; details: for selectivity ratio at 48 h: hamster
Protocol: Cells and viruses. BVDV-free MDBK cells (CCL 22) were obtained from the American Type Culture Collection and propagated in DMEM/F12 essential medium supplemented with penicillin (500 U/ml), streptomycin (500 U/ml), and 10% heat inactivated horse serum (Invitrogen). Cells were maintained in a humidified incubator at 37° C. with 5% CO2. BVDV (NADL strain) was obtained from Dr. Rubin Donis (Univ. of Nebraska-Lincoln). For infections, virus inoculum was added in complete medium and adsorbed for 1 h at 37° C., the inoculum was then removed, the cells washed once with medium and fresh medium containing compounds added. Virus stocks were prepared by freeze-thawing the infected cells and culture supernatant three times followed by centrifugation at 1,000 g for 5 min. Stock titers were determined, and stocks were aliquoted and stored at −80° C. WNV was obtained from a cDNA clone of a human 2002 isolate from Texas (Rossi et al., 2005); virus obtained from BHK cells electroporated with the in vitro synthesized RNA from this cDNA clone was passaged in Vero cells before use in antiviral assays. Dengue virus (DV) serotype 2 was a New Guinea C virus that had been passaged 28 times in suckling mouse brain, twice in Vero cells, and once in C6/36 mosquito cells.
WNV and DV Yield Reduction assay: Antiviral activity against WNV was evaluated in a yield reduction assay. Briefly, BHK cells were plated in 96-well plates at a concentration of 2.5×10^4 cells/well. 24 hours after plating, the cells were infected with WNV at an MOI of 0.05. After 1 hour the inoculum was aspirated and the cells re-fed with fresh DMEM containing dilutions of the test compounds. Plates were then incubated at 37° C. for 48 hours, the supernatant collected and the WNV produced titered. For virus titration, Vero cells were plated in 96-well plates at 8.0×10^3 cells/well and incubated overnight. The Vero cell monolayers were then infected for 1 hour with various dilutions of the WNV supernatant, overlaid with media containing 0.6% tragacanth (ICN, CA) and incubated at 37° C. for 24-30 hours. The culture media was then aspirated; the plate was rinsed, air-dried, and fixed with 50 ul/well acetone/methanol (50:50). Viral foci were detected for enumeration by immunostaining as described previously (Rossi et al., 2005). For antiviral testing against DV, DV serotype 2, drug incubations and titrations were performed essentially as described for WNV, except that the virus was harvested from drug-treated cultures 72 hrs after infection, and foci were stained using hybridoma culture fluid harvested from monoclonal antibody-producing hybridoma clone D1-4G2 (Gentry et al., 1982) following 3 days of incubation on Vero cells under the tragacanth overlay.
For this purpose, BHK cells were infected with WNV at an moi of 0.05, and incubated in either the absence or presence of various concentrations of N-butylcyclohexyl-DNJ (SP169) and N-propylcyclohexyl-DNJ (SP173). After three days, the amount of progeny virus produced was determined by plaque assays on indicator Vero cells.

[2] = MTT compound toxicity assay on BHK cells; type: cell-based; details: hamster; WNV (BHK); MTT, 50% reduction relative to DMSO
Protocol: as §1

BVDV = BVDV single cycle virus yield reduction assay in MDBK cells; type: cell-based, Bovine Viral Diarrhea virus (NADL strain); details: for antiviral activity against BVDV (in words): MDBK cells, virus yield reduction, FIG. 2C / 4C
Protocol: BVDV antiviral and plaque assays. To evaluate antiviral activity against BVDV, a single cycle virus yield reduction assay was performed in the presence of various concentrations of the test compounds. Specifically, 2×10^5 MDBK cells/well were plated in 24 well plates. Twenty-four hours later, the cells were infected with BVDV at a multiplicity of infection (moi) of 0.5 PFU/cell in 100 ul complete media. After adsorption for 1 h at 37° C., the inoculum was removed, and cells were washed with media before media containing vehicle or various concentrations of each compound was added. At 22 hour post infection, both cell and media were collected and freeze-thawed three times before the virus was titered. For BVDV virus titer determination, 10^−2, 10^−3, and 10^−4 dilutions of virus were inoculated onto MDBK cells as described previously (Gu et al., 2000; Jordan et al., 2002). After absorption and washing the cells were overlaid with medium containing methylcellulose or soft agar and incubated at 37° C. for 3 days or until plaques were visible. Plaques were counted directly under the microscope or after staining with crystal violet in 70% methanol for 15 min.
as §2

DV serotype 2 = assay: DV yield reduction assay in BHK cells; type: cell-based, Dengue virus (DV) serotype 2; details: for selectivity ratio at 72 h: hamster, read-out: SI (Selective Index, CC50/IC50)
Protocol: In the DV infection assay, a serotype 2 DV was used to infect BHK cells in the presence or absence of testing compounds and viruses produced after 72 hours were titered in a manner similar to the WNV assay. In this experiment, N-butylcyclohexyl-DNJ (SP169), N-pentyl(1-hydroxylcyclohexyl)-DNJ (OSL-95II), […] and N-propylcyclohexyl-DNJ (SP173) were compared with NNDNJ (Wu et al., 2002) and castanospermine. […] All compounds had no toxicity at the highest concentrations used in this experiment (FIG. 5B, Table 1).

HBV = HBV antigen assay: LHBs and MHBs secreted by HepG2.2.15 cells, immunoblot; type: cell-based, Hepatitis B virus; details: 7 days
Protocol: MHBs and LHBs are HBV envelope proteins that are sensitive to glucosidase inhibition and inhibition of these important viral glycoproteins serves as a surrogate for HBV growth. […] To assess the activity of this compound in the context of viral replication, HepG2 2.2.15 cells were incubated with the indicated DNJ derived compound. HepG 2.2.15 cells secrete readily detectable amounts of MHBs and LHBs into the culture medium. After 7 days of incubation, the amount of HBV M and L in the culture medium was determined by western blot. […] The nature of the selective antiviral activity is not known, but may be due to cell specific activity since HBV is studied in human liver derived hepatoblastoma HepG2 cells and BVDV and WNV were studied in MDBK and BHK cells, respectively.
HBV antigen assay: Antiviral activity against HBV was determined using HepG2.2.15 cells, which contain a dimer of the HBV genome and express all viral gene products, including envelope glycoproteins (Sells, Chen, and Acs, 1987). Briefly, HepG2.2.15 cells were seeded in 24 well trays, and allowed to grow to confluence prior to addition of drug, as described previously (Simsek et al., 2005). After seven days of treatment, supernatants were harvested and assayed for the presence of the Large Hepatitis B (LHBs) and middle Hepatitis B (MHBs) glycoproteins by electrophoresis through 12% polyacrylamide gels and immunoblotting with a polyclonal antibody that recognizes the pre-S2 region of the LHBs and MHBs proteins (Research Diagnostics Inc., Flanders, N.J.) as described (Simsek et al., 2005). Quantitation was performed using AlphaEase software (Alphalnnotech).

BHK cells = assay: MTT compound toxicity assay on BHK cells; type: cell-based; details: for CC50: WNV (BHK), MTT, 50% reduction relative to DMSO
Protocol: as §1

[3] = MDBK cells, MTT, text to FIG. 2B / 4B
[4] = Dengue virus, BHK, 72 h, read-out: IC50 against DV
[5] = WNV (BHK), plaque number reduced by 50% relative to DMSO, 48 hours
[6] = BVDV (MDBK), concentration reducing plaque number by 50% relative to DMSO, read-out: IC50

## OC[C@@H]1[C@@H](O)[C@H](O)[C@@H](O)CN1CCCCC1(O)CCCCC1 [OSL-12-31, N-butyl(1-hydroxycyclohexyl)-1,5-dideoxy-1,5-imino-D-glucitol]
[1]; [3]
  CC50 at 72 h: > 300 µM
MDBK cells
  toxicity in MDBK cells (in words): less toxic in MDBK cultures than SP169

## OC[C@@H]1[C@@H](O)[C@H](O)[C@@H](O)CN1CCCCCCC1(O)CCCCC1 [OSL-3, N-hexyl(1-hydroxycyclohexyl)-1,5-dideoxy-1,5-imino-D-glucitol]
[1]; [3]
  CC50 at 72 h: > 300 µM

## OC[C@@H]1[C@@H](O)[C@H](O)[C@@H](O)CN1CCCCCC1(O)CCCCC1 [OSL-95II, N-pentyl(1-hydroxycyclohexyl)-1,5-dideoxy-1,5-imino-D-glucitol]
WNV; West Nile virus, BHK, 48 h
  IC50: 4.5 µM
WNV
  selectivity ratio at 48 h: > 9
[2]
  CC50 at 72 h: > 100 µM
BVDV; Bovine viral diarrhea virus isolates and strains, MDBK
  IC50: 3000 nM
BVDV; bovine, BVDV (MDBK), read-out: SI (Selective Index, CC50/IC50)
  selectivity ratio at 20 h: > 166
DV serotype 2; Dengue virus, BHK, 72 h
  IC50: 2000 nM
DV serotype 2; [4]
  IC50: 1000 to 2000 nM
DV serotype 2; DV (BHK)
  selectivity ratio at 72 h: > 50
[1]; BVDV (MDBK), concentration reducing MTT values (570 nm) by 50% relative to DMSO
  CC50 at 72 h: > 500 µM
MDBK cells
  toxicity in MDBK cells (in words): much less toxic than N-pentylcyclohexyl-DNJ (OSL-1); also recorded: significantly less cytotoxic against MDBK cells

## CCOCCCCCN1C[C@H](O)[C@@H](O)[C@H](O)[C@H]1CO [Compound 6-08, 6′-oxaoctyl-DNJ]
BVDV
  antiviral activity against BVDV (in words): retained the best antiviral activity of the series

## OC[C@@H]1[C@@H](O)[C@H](O)[C@@H](O)CN1CCCCC1=CCCCC1 [OSL-12-51, N-butyl(1-cyclohexenyl)-DNJ]
BVDV
  antiviral activity against BVDV (in words): substantially less active against BVDV

## Nc1ccn([C@@H]2CS[C@H](CO)O2)c(=O)n1 [Compound 3TC, reference compound]
HBV; 3TC 1 ug/ml, FIG. 6B
  reduction of MHBs and LHBs in culture medium (in words): little effect

## O[C@H]1[C@H](O)[C@@H](O)CN2CC[C@H](O)[C@H]12 [CAST, Castanospermine, reference compound]
WNV; West Nile virus, BHK, 48 h
  IC50: > 20 µM
WNV
  selectivity ratio at 48 h: 5
WNV; highest concentration tested (20 uM)
  antiviral activity against WNV (in words): no significant activity
[2]
  CC50 at 72 h: > 100 µM
DV serotype 2; Dengue virus, BHK, 72 h
  IC50: 6000 nM
DV serotype 2; [4]
  IC50: 6000 nM
DV serotype 2; DV (BHK)
  selectivity ratio at 72 h: > 17

## OC[C@@H]1[C@@H](O)[C@H](O)[C@@H](O)CN1CCCCCCC1CCCCC1 [OSL-2, N-hexylcyclohexyl-DNJ]
BVDV
  antiviral activity against BVDV (in words): appeared to be inactive against BVDV

## OC[C@@H]1[C@@H](O)[C@H](O)[C@@H](O)CN1CCCC1CCCCC1 [SP173, N-propylcyclohexyl-DNJ]
WNV; BHK cells, moi 0.05, FIG. 3B / 4D
  antiviral activity against WNV (in words): comparable to NNDNJ in activity
WNV; WNV (BHK)
  SI (Selective Index, CC50/IC50): >100
WNV; [5]
  IC50: 1 µM
WNV; read-out: concentration inhibiting 50% of the WNV progeny produced, text to FIG. 3B, BHK cells, moi 0.05
  IC50: 5 µM
BHK cells; BHK cells, measured in parallel to WNV assay, data not shown
  concentration without any detectable cell toxicity (highest concentration tested): 100 µM
BHK cells
  CC50: > 100 µM
BVDV; BVDV (MDBK)
  SI (Selective Index, CC50/IC50): >30
BVDV; [6]
  IC50: 5000 nM
DV serotype 2; DV (BHK)
  SI (Selective Index, CC50/IC50): >33
DV serotype 2; DV (BHK), serotype 2, 72 hrs, read-out: IC50
  IC50: 3000 nM
MDBK cells
  CC50: > 150 µM

## OC[C@@H]1[C@@H](O)[C@H](O)[C@@H](O)CN1CCCCCC1CCCCC1 [OSL-1, N-pentylcyclohexyl-DNJ]
HBV; 50 uM, FIG. 6A
  inhibition of secretion of viral glycoproteins MHBs and LHBs (in words): lacked antiviral activity in this assay

## CCCCCCCCCN1C[C@H](O)[C@@H](O)[C@H](O)[C@H]1CO [NNDNJ, N-nonyl-DNJ, reference compound]
WNV; WNV (BHK)
  SI (Selective Index, CC50/IC50): 5-25
WNV; [5]
  IC50: 4 µM
BHK cells
  CC50: 20 to 100 µM
BVDV; BVDV (MDBK)
  SI (Selective Index, CC50/IC50): >50
BVDV; [6]
  IC50: < 3000 nM
DV serotype 2; DV (BHK)
  SI (Selective Index, CC50/IC50): 20-100
DV serotype 2; text to FIG. 5A, BHK cells, DV serotype 2, 72 hours, read-out: IC50 against DV
  IC50: 1000 nM
MDBK cells
  CC50: 150 µM
